Results reported in PubChem BioAssay AID256 (DTP/NCI, 2004).
Where “and” joins values, the source holds several entries; their conditions need not be identical. Equal values may be shown once. Toxic doses and inconclusive results are not listed.

Tested on: CD2F1 mice, L1210 leukemia ip, survival T/C
Test: NCI In Vivo Anticancer Drug Screen. Data for tumor model L1210 Leukemia (intraperitoneal) in CD2F1 (CDF1) mice
Details: higher = longer survival
How it was run: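 Read-out first: treated-group measurement over vehicle-control measurement, expressed as a ratio. Animals bore a transplanted tumor line and were dosed with compound or vehicle.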

[1] = endpoint: mean survival time, dose: 100.0 mg/kg/injection, schedule: Q04DX003 (ip), vehicle: saline with Tween-80
[2] = endpoint: mean survival time, dose: 200.0 mg/kg/injection, schedule: Q04DX003 (ip), vehicle: saline with Tween-80
[3] = endpoint: mean survival time, dose: 400.0 mg/kg/injection, schedule: Q04DX003 (ip), vehicle: saline with Tween-80
[4] = endpoint: mean survival time, dose: 100.0 mg/kg/injection, schedule: Q01DX001 (ip), vehicle: saline with Tween-80
[5] = endpoint: mean survival time, dose: 100.0 mg/kg/injection, schedule: Q04DX003 (ip), vehicle: Klucel (hydroxypropylcellulose) (HPC)
[6] = endpoint: mean survival time, dose: 200.0 mg/kg/injection, schedule: Q04DX003 (ip), vehicle: Klucel (hydroxypropylcellulose) (HPC)
[7] = endpoint: mean survival time, dose: 400.0 mg/kg/injection, schedule: Q04DX003 (ip), vehicle: Klucel (hydroxypropylcellulose) (HPC)
[8] = endpoint: mean survival time, dose: 75.0 mg/kg/injection, schedule: Q01DX001 (ip), vehicle: saline
[9] = endpoint: mean survival time, dose: 150.0 mg/kg/injection, schedule: Q01DX001 (ip), vehicle: saline
[10] = endpoint: mean survival time, dose: 100.0 mg/kg/injection, schedule: Q01DX009 (ip), vehicle: saline with Tween-80
[11] = endpoint: mean survival time, dose: 200.0 mg/kg/injection, schedule: Q01DX009 (ip), vehicle: saline with Tween-80
[12] = endpoint: mean survival time, dose: 400.0 mg/kg/injection, schedule: Q01DX009 (ip), vehicle: saline with Tween-80
[13] = endpoint: mean survival time, dose: 100.0 mg/kg/injection, schedule: Q04DX003 (ip), vehicle: saline
[14] = endpoint: mean survival time, dose: 200.0 mg/kg/injection, schedule: Q04DX003 (ip), vehicle: saline
[15] = endpoint: mean survival time, dose: 75.0 mg/kg/injection, schedule: Q01DX001 (ip), vehicle: other

## CCC1(OC(=O)CN2CCN(CCCO)CC2)C(=O)OCc2c1cc1n(c2=O)Cc2cc3ccccc3nc2-1 (stereo not given)
endpoint: median survival time, dose: 6.25 mg/kg/injection, schedule: Q04DX002 (ip), vehicle: water
  T/C: 106 % of control
endpoint: median survival time, dose: 12.5 mg/kg/injection, schedule: Q04DX002 (ip), vehicle: water
  T/C: 107 % of control and 108 % of control
endpoint: median survival time, dose: 25.0 mg/kg/injection, schedule: Q04DX002 (ip), vehicle: water
  T/C: 121 % of control and 111 % of control
endpoint: median survival time, dose: 50.0 mg/kg/injection, schedule: Q04DX002 (ip), vehicle: water
  T/C: 120 % of control
endpoint: median survival time, dose: 100.0 mg/kg/injection, schedule: Q04DX002 (ip), vehicle: water
  T/C: 170 % of control

## CCCCCCCCCCCCCCCC[N+](C)(C)CC#CCCl
endpoint: mean survival time, dose: 6.25 mg/kg/injection, schedule: Q04DX002 (ip), vehicle: saline with Tween-80
  T/C: 96 % of control
endpoint: mean survival time, dose: 12.5 mg/kg/injection, schedule: Q04DX002 (ip), vehicle: saline with Tween-80
  T/C: 88 % of control
endpoint: mean survival time, dose: 25.0 mg/kg/injection, schedule: Q04DX002 (ip), vehicle: saline with Tween-80
  T/C: 88 % of control

## Cc1nc2c(c[n+]1C)CN1C=Nc3c(ncn3C3OC(CO)C(O)C3O)C1=N2 (stereo not given)
endpoint: median survival time, dose: 12.5 mg/kg/injection, schedule: Q01DX005 (ip), vehicle: saline
  T/C: 98 % of control
endpoint: median survival time, dose: 25.0 mg/kg/injection, schedule: Q01DX005 (ip), vehicle: saline
  T/C: 100 % of control
endpoint: median survival time, dose: 50.0 mg/kg/injection, schedule: Q01DX005 (ip), vehicle: saline
  T/C: 100 % of control
endpoint: median survival time, dose: 100.0 mg/kg/injection, schedule: Q01DX005 (ip), vehicle: saline
  T/C: 100 % of control
endpoint: median survival time, dose: 200.0 mg/kg/injection, schedule: Q01DX005 (ip), vehicle: saline
  T/C: 100 % of control

## CC(C)(C)C1CC=CCC1 (stereo not given)
[1]
  T/C: 98 % of control
[2]
  T/C: 98 % of control

## CC(C)(C)c1cccc(C(C)(C)C)c1OC(=O)NS(=O)(=O)c1ccccc1
endpoint: mean survival time, dose: 12.5 mg/kg/injection, schedule: Q04DX003 (ip), vehicle: acetone
  T/C: 101 % of control
endpoint: mean survival time, dose: 25.0 mg/kg/injection, schedule: Q04DX003 (ip), vehicle: acetone
  T/C: 101 % of control
endpoint: mean survival time, dose: 50.0 mg/kg/injection, schedule: Q04DX003 (ip), vehicle: acetone
  T/C: 113 % of control

## CCOC(=O)/C=C/c1ccc2c(c1)OCO2
[1]
  T/C: 97 % of control
[2]
  T/C: 94 % of control
[3]
  T/C: 103 % of control

## C=C(Cl)CSCC
endpoint: mean survival time, dose: 25.0 mg/kg/injection, schedule: Q01DX009 (ip), vehicle: acetone
  T/C: 114 % of control
endpoint: mean survival time, dose: 50.0 mg/kg/injection, schedule: Q01DX009 (ip), vehicle: acetone
  T/C: 120 % of control

## N=c1sc2ccccc2n1CC(=O)O
[4]
  T/C: 100 % of control

## CCCC[n+]1ccccc1Cc1ccccc1
endpoint: mean survival time, dose: 25.0 mg/kg/injection, schedule: Q04DX003 (ip), vehicle: saline
  T/C: 101 % of control

## BrCCCCCCCCCCC1(c2ccccc2)OCCO1
[5]
  T/C: 90 % of control
[6]
  T/C: 94 % of control
[7]
  T/C: 95 % of control

## CC(=O)OC1COC(n2nnc(C#N)c2C#N)C(OC(C)=O)C1OC(C)=O (stereo not given)
endpoint: mean survival time, dose: 12.5 mg/kg/injection, schedule: Q01DX005 (ip), vehicle: distilled water + Tween-80
  T/C: 103 % of control and 98 % of control
endpoint: mean survival time, dose: 25.0 mg/kg/injection, schedule: Q01DX005 (ip), vehicle: distilled water + Tween-80
  T/C: 97 % of control and 103 % of control
endpoint: mean survival time, dose: 50.0 mg/kg/injection, schedule: Q01DX005 (ip), vehicle: distilled water + Tween-80
  T/C: 98 % of control and 101 % of control
endpoint: mean survival time, dose: 100.0 mg/kg/injection, schedule: Q01DX005 (ip), vehicle: distilled water + Tween-80
  T/C: 104 % of control and 106 % of control
endpoint: mean survival time, dose: 200.0 mg/kg/injection, schedule: Q01DX005 (ip), vehicle: distilled water + Tween-80
  T/C: 95 % of control

## CC(C)(C)C(=O)/C=C/c1ccccc1
endpoint: mean survival time, dose: 50.0 mg/kg/injection, schedule: Q04DX003 (ip), vehicle: Klucel (hydroxypropylcellulose) (HPC)
  T/C: 96 % of control
[5]
  T/C: 98 % of control and 102 % of control
[6]
  T/C: 98 % of control and 110 % of control
[7]
  T/C: 106 % of control

## CC(=O)C12CC3CC1C2C3
[8]
  T/C: 101 % of control
[9]
  T/C: 98 % of control
endpoint: mean survival time, dose: 300.0 mg/kg/injection, schedule: Q01DX001 (ip), vehicle: saline
  T/C: 93 % of control

## CC(=O)c1ccc(-c2ccccc2)cc1
[5]
  T/C: 102 % of control
[6]
  T/C: 103 % of control
[7]
  T/C: 102 % of control

## O=C(O)C(C(=O)O)=C(C(=O)c1ccccc1)c1ccccc1
endpoint: mean survival time, dose: 100.0 mg/kg/injection, schedule: Q01DX009 (ip), vehicle: other
  T/C: 95 % of control
endpoint: mean survival time, dose: 200.0 mg/kg/injection, schedule: Q01DX009 (ip), vehicle: other
  T/C: 100 % of control
endpoint: mean survival time, dose: 400.0 mg/kg/injection, schedule: Q01DX009 (ip), vehicle: other
  T/C: 95 % of control

## O=C(N/N=C/c1ccc2c(c1)CCC2)c1ccccc1[N+](=O)[O-]
endpoint: mean survival time, dose: 100.0 mg/kg/injection, schedule: Q01DX001 (ip), vehicle: Klucel (hydroxypropylcellulose) (HPC)
  T/C: 95 % of control
endpoint: mean survival time, dose: 200.0 mg/kg/injection, schedule: Q01DX001 (ip), vehicle: Klucel (hydroxypropylcellulose) (HPC)
  T/C: 94 % of control
[2]
  T/C: 89 % of control
endpoint: mean survival time, dose: 400.0 mg/kg/injection, schedule: Q01DX001 (ip), vehicle: Klucel (hydroxypropylcellulose) (HPC)
  T/C: 97 % of control
[3]
  T/C: 96 % of control

## OC(c1ccccc1)(c1ccccc1)c1ccccc1Cl
[10]
  T/C: 98 % of control
[11]
  T/C: 101 % of control
[12]
  T/C: 102 % of control

## CCOC(=O)NC1CCC1NC(=O)OCC (stereo not given)
[1]
  T/C: 95 % of control
[2]
  T/C: 106 % of control
[3]
  T/C: 107 % of control

## COc1ccccc1C(O)(C(=O)OCCSC)c1ccccc1OC
[13]
  T/C: 93 % of control
[14]
  T/C: 94 % of control
endpoint: mean survival time, dose: 400.0 mg/kg/injection, schedule: Q04DX003 (ip), vehicle: saline
  T/C: 88 % of control

## Oc1ccccc1/C=N/c1nc(-c2ccccc2)cs1.Oc1ccccc1/C=N/c1nc(-c2ccccc2)cs1.[Zn]
endpoint: mean survival time, dose: 25.0 mg/kg/injection, schedule: Q01DX001 (ip), vehicle: saline
  T/C: 103 % of control
endpoint: mean survival time, dose: 50.0 mg/kg/injection, schedule: Q01DX001 (ip), vehicle: saline
  T/C: 100 % of control
[4]
  T/C: 104 % of control
endpoint: mean survival time, dose: 100.0 mg/kg/injection, schedule: Q01DX001 (ip), vehicle: saline
  T/C: 91 % of control

## COC(C(O)C=O)C(O)C(O)CO (stereo not given)
[1]
  T/C: 96 % of control
[2]
  T/C: 101 % of control
[3]
  T/C: 95 % of control

## O=c1cccc[nH]1 (tested in a mixture with another compound)
endpoint: mean survival time, dose: 50.0 mg/kg/injection, schedule: Q01DX009 (ip), vehicle: saline with Tween-80
  T/C: 108 % of control
[13]
  T/C: 97 % of control
[14]
  T/C: 97 % of control

## CCC(=O)O.CCC(=O)O.CCC(=O)O.CCC(=O)O.O=P1(N(CCCl)CCCl)NCCCO1.O=P1(N(CCCl)CCCl)NCCCO1.[Rh].[Rh] (stereo not given)
endpoint: mean survival time, dose: 0.5 mg/kg/injection, schedule: Q01DX001 (ip), vehicle: water
  T/C: 92 % of control
endpoint: mean survival time, dose: 1.0 mg/kg/injection, schedule: Q01DX001 (ip), vehicle: water
  T/C: 92 % of control
endpoint: mean survival time, dose: 2.0 mg/kg/injection, schedule: Q01DX001 (ip), vehicle: water
  T/C: 102 % of control
endpoint: mean survival time, dose: 4.0 mg/kg/injection, schedule: Q01DX001 (ip), vehicle: water
  T/C: 107 % of control

## CC(C)[C@]1(O)CC[C@H]2[C@@H]3CCc4cc(O)ccc4[C@H]3CC[C@@]21C
endpoint: mean survival time, dose: 100.0 mg/kg/injection, schedule: Q01DX009 (sc), vehicle: Klucel (hydroxypropylcellulose) (HPC)
  T/C: 104 % of control
endpoint: mean survival time, dose: 200.0 mg/kg/injection, schedule: Q01DX009 (sc), vehicle: Klucel (hydroxypropylcellulose) (HPC)
  T/C: 98 % of control
endpoint: mean survival time, dose: 400.0 mg/kg/injection, schedule: Q01DX009 (sc), vehicle: Klucel (hydroxypropylcellulose) (HPC)
  T/C: 92 % of control

## O=C(Nc1ccc(Cl)cc1)Nc1ccccc1F
[10]
  T/C: 97 % of control
[11]
  T/C: 103 % of control
[12]
  T/C: 105 % of control

## FC(F)(F)c1[nH]nc(-c2ccc(Cl)cc2)c1N=NN1CCOCC1
[15]
  T/C: 91 % of control
endpoint: mean survival time, dose: 150.0 mg/kg/injection, schedule: Q01DX001 (ip), vehicle: other
  T/C: 95 % of control

## COc1cc2c(cc1OC)C13CCN4CC5=CCOC(CC(=O)O)C(C5CC41)C3N2 (stereo not given)
[15]
  T/C: 98 % of control
[8]
  T/C: 101 % of control
[9]
  T/C: 97 % of control

## N#CC(C#N)=Cc1cccc(CC(O)(C(F)(F)F)C(F)(F)F)n1
[1]
  T/C: 105 % of control
[2]
  T/C: 94 % of control

## CC(C)(C)C1CCS(=O)(=O)CC1.[Cl][Hg][Cl]
endpoint: mean survival time, dose: 0.25 mg/kg/injection, schedule: Q04DX003 (ip), vehicle: saline
  T/C: 104 % of control
endpoint: mean survival time, dose: 0.5 mg/kg/injection, schedule: Q04DX003 (ip), vehicle: saline
  T/C: 94 % of control
endpoint: mean survival time, dose: 1.0 mg/kg/injection, schedule: Q04DX003 (ip), vehicle: saline
  T/C: 100 % of control
